The structures appear in SMILES notation. Values after ≈ are worked out from the molar mass of the structure shown. Where two headings read alike, the source gives them in different places.

Experimental findings from patent US20210309657A1, “TRICYCLIC COMPOUNDS FOR THE TREATMENT AND PROPHYLAXIS OF BACTERIAL INFECTION” (Hoffmann-La Roche Inc., priority 2018, published 2021) are described below.

Data set [1] deals with K. pneumoniae (ATCC10031). Description: 50% growth inhibitory concentration (IC50) determination assay, K. pneumoniae. In kind it is cell-based. To be noted: Klebsiella pneumoniae, growth inhibition, Iso-Sensitest broth, OD 600 nm over 16h, <0.098 = the detection limit. On the procedure:
(§1) The in vitro antimicrobial activity of the compounds against S. aureus (ATCC29213), K. pneumoniae (ATCC10031), and A. baumannii (ATCC17978), was determined according to the following procedure: The assay used a 10-points Iso-Sensitest broth medium to measure quantitatively the in vitro activity of the compounds against S. aureus ATCC29213, K. pneumoniae ATCC 10031, and A. baumannii ATCC17978. Stock compounds in DMSO were serially two-fold diluted (range from 50 to 0.097 μM final concentration) in 384 wells microtiter plates and inoculated with 49 μL the bacterial suspension in Iso-Sensitest broth medium to have a final cell concentration of ˜5×10^5 CFU/mL in a final volume/well of 50 μL/well. Microtiter plates were incubated at 35±2° C. Bacterial cell growth was determined with the measurement of optical density at λ=600 nm each 20 minutes over a time course of 16h. Growth inhibition was calculated during the logarithmic growth of the bacterial cells with determination of the concentration inhibiting 50% (IC50) of the growth. Compounds of the present invention were tested for their concentration inhibiting 50% (IC50). The data of IC50 over S. aureus (ATCC29213), K. pneumoniae (ATCC10031), and A. baumannii (ATCC17978) are illustrated in Table 4.

The subject of a further data set is S. aureus (ATCC29213). The data set can be described thus: 50% growth inhibitory concentration (IC50) determination assay, S. aureus. In kind it is cell-based. To be noted: Staphylococcus aureus, growth inhibition, Iso-Sensitest broth, OD 600 nm over 16h, <0.098 = the detection limit. On the procedure: as §1
The next data set deals with A. baumannii (ATCC17978). Description: 50% growth inhibitory concentration (IC50) determination assay, A. baumannii. The data set is classed as cell-based. To be noted: Acinetobacter baumannii, growth inhibition, Iso-Sensitest broth, OD 600 nm over 16h, <0.098 = the detection limit. On the procedure: as §1
Data set [2] in a line: Lyophilisation solubility assay (LYSA). In kind it is physicochemical. To be noted: thermodynamic from solid. As for the experimental part:
The solubility of compounds of present invention was assessed by LYSA assay. Samples were prepared in duplicate from 10 mM DMSO stock solutions ([…]) diluted in 30 μL pure DMSO. After evaporation of DMSO with a centrifugal vacuum evaporator, the residue was dissolved in 0.05 M phosphate buffer (150 μL, pH 6.5), which was stirred for one hour and shook for two hours. After one night, the solution was filtered using a microtiter filter plate. Then the filtrate and its 1/10 dilution were analyzed by HPLC-UV. In addition, a four-point calibration curve was prepared from the 10 mM stock solutions and used for the solubility determination of the compounds.

Setting [3] is: aqueous buffer, 0.05 M phosphate buffer, pH 6.5, HPLC-UV, <1.0 = the detection limit, read-out: Lysa.

As to `CNc1cc(F)c(F)c2c1[nH]c1ncc(-c3cnc(OC)nc3)c(N3CC4CC4(CN)C3)c12` (stereo not shown) [Example 1.27, 4-[1-(Aminomethyl)-3-azabicyclo[3.1.0]hexan-3-yl]-5,6-difluoro-3-(2-methoxypyrimidin-5-yl)-N-methyl-9H-pyrido[2,3-b]indol-8-amine], the 50% inhibitory concentration (IC50) in data set [1] was less than 98 nM; in the data set with S. aureus (ATCC29213), 522 nM; in the data set with A. baumannii (ATCC17978), 340 nM. In addition, the solubility thermodynamic in data set [2] (setting [3]) was 74 µg/mL (≈ 164 µM).
Taken in the same sequence, the figures for `CNc1cc(F)c(F)c2c1[nH]c1ncc(-c3cnc(OC)nc3)c(N3CCC(F)(CN)C3)c12` (stereo not shown) [Example 1.28, 4-[3-(aminomethyl)-3-fluoro-pyrrolidin-1-yl]-5,6-difluoro-3-(2-methoxypyrimidin-5-yl)-N-methyl-9H-pyrido[2,3-b]indol-8-amine] were less than 98 nM, 227 nM, 115 nM and 88 µg/mL (≈ 192 µM).
Taken in the same sequence, the figures for `CNc1cc(F)c(F)c2c1[nH]c1ncc(-c3cncc(C#N)c3)c(N3CC4CC4(CN)C3)c12` (stereo not shown) [Example 1.32, 5-[4-[1-(Aminomethyl)-3-azabicyclo[3.1.0]hexan-3-yl]-5,6-difluoro-8-(methylamino)-9H-pyrido[2,3-b]indol-3-yl]pyridine-3-carbonitrile] were less than 98 nM, 1240 nM, 472 nM and 10 µg/mL (≈ 22.4 µM).
Regarding `CNc1cc(F)c(F)c2c1[nH]c1ncc(-c3cncc(C#N)c3)c(N3CCCC(N)C3)c12` (stereo not shown) [Example 1.46, 5-(4-(3-Aminopiperidin-1-yl)-5,6-difluoro-8-(methylamino)-9H-pyrido[2,3-b]indol-3-yl)nicotinonitrile], the results for the IC50 (in data set [1]; in the data set on S. aureus (ATCC29213); in the data set with A. baumannii (ATCC17978)) were less than 98 nM, 206 nM and 387 nM, respectively. Further, the solubility thermodynamic in data set [2] (setting [3]) is 17 µg/mL (≈ 39.2 µM).
As to `CNc1cc(F)c(F)c2c1[nH]c1ncc(-c3cnc(OC)nc3)c(N3CCCC(N)C3)c12` (stereo not shown) [Example 1.47, 4-(3-Aminopiperidin-1-yl)-5,6-difluoro-3-(2-methoxypyrimidin-5-yl)-N-methyl-9H-pyrido[2,3-b]indol-8-amine], the IC50 in data set [1] is less than 98 nM; in the data set with S. aureus (ATCC29213), 275 nM; with A. baumannii (ATCC17978) it was 443 nM. For the same molecule, the solubility thermodynamic in data set [2] (setting [3]) was 19 µg/mL (≈ 43.2 µM).
Taken in the same sequence, the figures for `CCNc1cc(F)c(F)c2c1[nH]c1ncc(-c3cnc(OC)nc3)c(N3CCC[C@@H](CN)C3)c12` [Example 1.53, (S)-4-(3-(Aminomethyl)piperidin-1-yl)-N-ethyl-5,6-difluoro-3-(2-methoxypyrimidin-5-yl)-9H-pyrido[2,3-b]indol-8-amine] were less than 98 nM, 394 nM, less than 98 nM and 241 µg/mL (≈ 515 µM).
The corresponding values for `CNc1cc(F)c(F)c2c1[nH]c1ncc(-c3cncc(C#N)c3)c(N3CCCC(F)(CN)C3)c12` (stereo not shown) [Example 1.54, 5-[4-[3-(Aminomethyl)-3-fluoro-1-piperidyl]-5,6-difluoro-8-(methylamino)-9H-pyrido[2,3-b]indol-3-yl]pyridine-3-carbonitrile] are less than 98 nM, 477 nM, less than 98 nM and 39 µg/mL (≈ 83.8 µM).
`CNc1cc(F)c(F)c2c1[nH]c1ncc(-c3cnc(OC)nc3)c(N3C4CNCC3C4)c12` [Example 1.57, 4-(3,6-Diazabicyclo[3.1.1]heptan-6-yl)-5,6-difluoro-3-(2-methoxypyrimidin-5-yl)-N-methyl-9H-pyrido[2,3-b]indol-8-amine]: the figures for the IC50 (in data set [1]; in the data set with S. aureus (ATCC29213); in the data set on A. baumannii (ATCC17978)) were less than 98 nM, 286 nM and 314 nM, respectively. Further, the solubility thermodynamic in data set [2] (pH 6.5, aqueous buffer) was determined as 91 µg/mL (≈ 208 µM).
Taken in the same sequence, the figures for `CCOc1ncc(-c2cnc3[nH]c4c(NC)cc(F)cc4c3c2N2C3CNCC2C3)cn1` [Example 1.59, 4-(3,6-Diazabicyclo[3.1.1]heptan-6-yl)-3-(2-ethoxypyrimidin-5-yl)-6-fluoro-N-methyl-9H-pyrido[2,3-b]indol-8-amine] were less than 98 nM, 631 nM, 499 nM and 395 µg/mL (≈ 911 µM).
Taken in the same sequence, the figures for `CNc1cc(F)cc2c1[nH]c1ncc(-c3cnc(OC)nc3)c(N3C4CNCC3C4)c12` [Example 1.61, 4-(3,6-Diazabicyclo[3.1.1]heptan-6-yl)-6-fluoro-3-(2-methoxypyrimidin-5-yl)-N-methyl-9H-pyrido[2,3-b]indol-8-amine] were less than 98 nM, 650 nM, 792 nM and 62 µg/mL (≈ 148 µM).
Take `CNc1cc(F)c(F)c2c1[nH]c1ncc(-c3cnc(C4(C(=O)O)CC4)nc3)c(N(C)C)c12` [Example 2.02, 1-[5-[4-(dimethylamino)-5,6-difluoro-8-(methylamino)-9H-pyrido[2,3-b]indol-3-yl]pyrimidin-2-yl]cyclopropanecarboxylic acid]: the IC50 is 391 nM in data set [1], 474 nM in the data set on S. aureus (ATCC29213) and less than 98 nM in the data set with A. baumannii (ATCC17978). Moreover, the solubility thermodynamic in data set [2] (setting [3]) amounted to 160 µg/mL (≈ 365 µM).
The corresponding values for `CNc1c(F)c(F)cc2c1[nH]c1ncc(-c3cnc(C4(C(=O)O)CC4)nc3)c(N(C)C)c12` [Example 2.03, 1-(5-(4-(dimethylamino)-6,7-difluoro-8-(methylamino)-9H-pyrido[2,3-b]indol-3-yl)pyrimidin-2-yl)cyclopropanecarboxylic acid] are 189 nM, 1110 nM, less than 98 nM and 410 µg/mL (≈ 935 µM).
The corresponding values for `CNc1cc(F)c(F)c2c1[nH]c1ncc(-c3cnc(OC)nc3)c(N3CC(CN)C(F)(F)C3)c12` (stereo not shown) [Example 3.03, 4-[4-(aminomethyl)-3,3-difluoro-pyrrolidin-1-yl]-5,6-difluoro-3-(2-methoxypyrimidin-5-yl)-N-methyl-9H-pyrido[2,3-b]indol-8-amine] are less than 98 nM, 559 nM, 411 nM and 125 µg/mL (≈ 263 µM).
The corresponding values for `CNc1cc(F)c(F)c2c1[nH]c1ncc(-c3cncc(C#N)c3)c(N3CC(CN)C(F)(F)C3)c12` (stereo not shown) [Example 3.04, 5-[4-[4-(aminomethyl)-3,3-difluoro-pyrrolidin-1-yl]-5,6-difluoro-8-(methylamino)-9H-pyrido[2,3-b]indol-3-yl]pyridine-3-carbonitrile] are less than 98 nM, 649 nM, 485 nM and 16 µg/mL (≈ 34.1 µM).
Take `CNc1cc(F)cc2c1[nH]c1ncc(-c3cnc(OC)nc3)c(C3(CN)CC3)c12` [Example 4.01, 4-(1-(Aminomethyl)cyclopropyl)-6-fluoro-3-(2-methoxypyrimidin-5-yl)-N-methyl-9H-pyrido[2,3-b]indol-8-amine]: the half-maximal inhibitory concentration (IC50) in data set [1] was less than 98 nM; in the data set with S. aureus (ATCC29213), 631 nM; with A. baumannii (ATCC17978), 847 nM. In data set [2] (setting [3]), the solubility thermodynamic was more than 575 µg/mL.
On to `CNc1cc(F)c(F)c2c1[nH]c1ncc(-c3cnc(C)nc3)c(N3C[C@H]4C[C@@H]3C[C@H]4N)c12` [GP-6, reference compound], for which the IC50 (in data set [1]; in the data set with S. aureus (ATCC29213); in the data set with A. baumannii (ATCC17978)) was less than 98 nM in each case. In addition, in data set [2] (setting [3]), the solubility thermodynamic is less than 1 µg/mL.

As a reminder, the IC50 is the concentration needed to halve the response being measured. A low value points to greater potency in that assay.
